Broadly, the IC50 is the concentration needed to halve the response being measured. What is called ED50 is the dose that gives a 50% effect, or the effect in half of the subjects. A lower ED50 goes with greater potency.

51 compounds from ChEMBL document CHEMBL1125353, “Structure-activity studies on benzhydrol-containing nipecotic acid and guvacine derivatives as potent, orally-active inhibitors of GABA uptake” (J Med Chem, 1992) can be followed below.

The species named for experiment [1] is Rattus norvegicus. Put plainly: In vitro inhibition of [3H]GABA uptake in rat Hippocampal slices. Type of experiment: functional, organism-based.
In experiment [2] the test system is Mus musculus. Nature of the experiment: Potency inhibiting tonic extensor seizures from low-intensity corneal electroshock in mice following peroral administration. It counts as functional.
The subject of experiment [3] is Rodentia sp. Nature of the experiment: Inhibitory potency against threshold clonic seizures induced by ip picrotoxin in rodents. It counts as functional.
For experiment [4], the system named is Rodentia sp. Nature of the experiment: Potency inhibiting clonic seizures induced by GABA antagonist pentylene tetrazole(PTZ) in rodents following oral administration. Type of experiment: functional.
For experiment [5], the target named is Sodium channel alpha subunits; brain (Types I, II, III) (Rattus norvegicus, UniProt P04775+P04774+P08104). Put plainly: Inhibition of veratridine-stimulated [14C]- guanidine influx into rat cortical slice. Type of experiment: functional.
The test system of experiment [6] is Mus musculus. Nature of the experiment: Potency of the inhibiting ataxia in mice following peroral administration. Type of experiment: functional.
Experiment [7] is filed under the species Rattus norvegicus. Put plainly: Potency inhibiting focal seizures in rat hippocampus preventing hippocampal after discharges. Type of experiment: functional.
The test system of experiment [8] is Rattus norvegicus. Nature of the experiment: Anticonvulsant activity against kindled rats was determined after ip administration. It counts as functional.
The species entered for experiment [9] is Rattus norvegicus. Put plainly: In vitro Inhibitory activity against GABA uptake. It counts as functional.

Take `O=C(O)C1CCCN(CCOC(c2ccccc2)c2ccc(Cl)c(Cl)c2)C1` (stereo not given): it took 1.2 µM to reach half-maximal inhibition in the experiment filed under Rattus norvegicus [1] (Rattus norvegicus, 3 h) (IC50). For the compound `O=C(O)C1CCCN(CCOC(c2ccc(C(F)(F)F)cc2)c2ccc(C(F)(F)F)cc2)C1` (stereo not given), inhibition in the experiment filed under Rattus norvegicus [1] (Rattus norvegicus, 3 h) was half-maximal at 0.71 µM (IC50). The same measure, in the same setting: for `CCOC(=O)C1CCCN(CCOC(c2ccc(Cl)cc2)c2ccc(Cl)cc2)C1` (stereo not given) the value was 11 µM; for `O=C(O)C1CCCN(CCOC(c2ccc(Cl)c(Cl)c2)c2ccc(Cl)c(Cl)c2)C1` (stereo not given), 2.5 µM; for `O=C(O)C1CCCN(CCC(Cc2ccccc2)c2ccccc2)C1` (stereo not given), 50 µM. The same measure, in the same setting: to `O=C(O)[C@H]1CN(CCOC(c2ccc(Cl)cc2)c2ccc(Cl)cc2)CC[C@H]1O` belongs 1.5 µM; to `O=C(O)C1CCCN(CCC=C(c2ccccc2)c2ccccc2)C1` (stereo not given), 10 µM. Same read-out and setting: to `O=C1CCCN1CCOC(c1ccc(Cl)cc1)c1ccc(Cl)cc1` belongs 26 µM; to `O=C(O)C1CCCN(CCSC(c2ccccc2)c2ccccc2)C1` (stereo not given), 60 µM. In the case of `O=C(O)C1CCCN(CC(=O)C(c2ccccc2)c2ccccc2)C1` (stereo not given), in the experiment filed under Rattus norvegicus [1] (Rattus norvegicus, 3 h), the half-maximal inhibitory concentration (IC50) is more than 50 µM. The same measure, in the same setting: for `O=C(O)C1CCCN(CCCOC(c2ccccc2)c2ccccc2)C1` (stereo not given) the value was 12 µM; for `O=C(O)C1CCCN(CCOC(c2ccccc2)c2ccccc2)C1` (stereo not given), 3.4 µM; for `O=C(O)C1CCCN(CCCOC(c2ccccc2)(c2ccccc2)c2ccccc2)C1` (stereo not given), 7.9 µM. Take `O=C(O)C1CCCN(CCC2CC2(c2ccccc2)c2ccccc2)C1` (stereo not given): in the experiment filed under Rattus norvegicus [1] (Rattus norvegicus, 3 h), the IC50 was more than 50 µM. Compound `O=C(O)C1CCCN(CCOC2c3ccccc3C=Cc3ccccc32)C1` (stereo not given) gave a concentration for half-maximal inhibition (IC50) in the experiment filed under Rattus norvegicus [1] (Rattus norvegicus, 3 h) of 2.5 µM. The same measure, in the same setting: to `O=C(CCCN1CCCC(C(=O)O)C1)c1ccc(F)cc1` (stereo not given) belongs more than 50 µM. Consider `Cl.O=C(O)C1=CCCN(CCOC(c2ccc(C(F)(F)F)cc2)c2ccc(C(F)(F)F)cc2)C1`, for which the 50% effective dose (ED50) with Mus musculus [2] was determined as 1 mg/kg; in the experiment with Rodentia sp. [4], 0.4 mg/kg; in the experiment on Mus musculus [6], 64 mg/kg; in the experiment filed under Rattus norvegicus [7], 2.6 mg/kg. Moreover, in the experiment on Rodentia sp. [3], the Ataxia came to 1.7%. The IC50 was determined as 10 µM in experiment [5] and 0.34 µM in the experiment listed under Rattus norvegicus [1] (Rattus norvegicus, 3 h). For the compound `Cc1ccc(C(OCCN2CCCC(C(=O)O)C2)c2ccc(C)cc2)cc1` (stereo not given), in the experiment filed under Rattus norvegicus [1] (Rattus norvegicus, 3 h), the IC50 was 5.7 µM. The same measure, in the same setting: to `O=C(O)C1CCCN(CCOC(c2ccc(F)cc2)c2ccc(F)cc2)C1` (stereo not given) belongs 7.8 µM; to `O=C(O)C1CCCN(CCOC(c2ccc(Cl)c(Cl)c2)C2CCCCC2)C1` (stereo not given), 1.1 µM.

On to `O=C(O)CC1CCN(CCOC(c2ccc(Cl)cc2)c2ccc(Cl)cc2)C1` (stereo not given), for which half-maximal inhibition in the experiment listed under Rattus norvegicus [1] (Rattus norvegicus, 3 h) (IC50) was put at 2.7 µM. The same measure, in the same setting: for `O=C(O)C1CCCN(CCOC(c2ccc(Cl)cc2)c2ccc(Cl)c(C(F)(F)F)c2)C1` (stereo not given) the value was 1.4 µM. The compound `Cl.O=C(O)C1CCCN(CCOC(c2ccc(Cl)cc2)c2ccc(Cl)cc2)C1` (stereo not given) registered an ED50 in the experiment with Rattus norvegicus [8] of 25 mg/kg. The compound further came in with a 50% inhibitory concentration (IC50) in the experiment filed under Rattus norvegicus [1] (Rattus norvegicus, 3 h) of 0.41 µM. Turning to `O=C(O)[C@H]1CCCN(CCOC(c2ccc(Cl)cc2)c2ccc(Cl)cc2)C1` (stereo in doubt; 37), half-maximal inhibition in the experiment filed under Rattus norvegicus [1] (IC50) was put at 0.18 µM. Compound `O=C(O)C1CCCN(CCOC(c2ccccc2)c2ccc(Cl)cc2)C1` (stereo not given) displayed an IC50 in the experiment filed under Rattus norvegicus [1] (Rattus norvegicus, 3 h) of 20 µM.

Take `COC(=O)C1CCCN(CCOC(c2ccc(Cl)cc2)c2ccc(Cl)cc2)C1` (stereo not given): inhibition in the experiment listed under Rattus norvegicus [1] (Rattus norvegicus, 3 h) was half-maximal at 0.7 µM (IC50). Take `NC(=O)N1c2ccccc2C=Cc2ccccc21` [CARBAMAZEPINE]: the half-inhibitory concentration (IC50) in the experiment filed under Rattus norvegicus [1] (Rattus norvegicus, 3 h) was more than 50 µM.

Take `CN(C)C(=O)C1CCCN(CCOC(c2ccc(Cl)cc2)c2ccc(Cl)cc2)C1` (stereo not given): the IC50 in the experiment listed under Rattus norvegicus [1] (Rattus norvegicus, 3 h) came to 25 µM.

The compound `CC(=O)C1CCCN(CCOC(c2ccc(Cl)cc2)c2ccc(Cl)cc2)C1` (stereo not given) came in with a concentration for half-maximal inhibition (IC50) in the experiment listed under Rattus norvegicus [1] (Rattus norvegicus, 3 h) of 22 µM. On the same count and under the same terms, to `Clc1ccc(C(OCCN2CCCCC2)c2ccc(Cl)cc2)cc1` belongs 21 µM; to `N#CC1CCCN(CCOC(c2ccc(Cl)cc2)c2ccc(Cl)cc2)C1` (stereo not given), more than 50 µM; to `Cc1cc(Cl)ccc1C(OCCN1CCCC(C(=O)O)C1)c1ccc(Cl)cc1C` (stereo not given), 3.2 µM.

As for `CCCC(CCC)C(=O)O` [VALPROIC ACID], the IC50 in the experiment listed under Rattus norvegicus [1] (Rattus norvegicus, 3 h) was more than 50 µM. Compound `O=C(O)C1CCCN(CCc2oc3ccccc3c2-c2ccccc2)C1` (stereo not given) registered an IC50 in the experiment listed under Rattus norvegicus [1] (Rattus norvegicus, 3 h) of 22 µM.

`O=C(O)C1CCCN(CCOC2c3ccc(Cl)cc3CCc3cc(Cl)ccc32)C1` (stereo not given) yielded an IC50 in the experiment filed under Rattus norvegicus [1] (Rattus norvegicus, 3 h) of 1.6 µM. As for `NC(=O)C1CCCN(CCOC(c2ccc(Cl)cc2)c2ccc(Cl)cc2)C1` (stereo not given), in the experiment filed under Rattus norvegicus [1] (Rattus norvegicus, 3 h), the IC50 was found to be 35 µM. The same measure, in the same setting: to `OCC1CCCN(CCOC(c2ccc(Cl)cc2)c2ccc(Cl)cc2)C1` (stereo not given) belongs 47 µM. As to `O=C(O)[C@@H]1CCCNC1` [(R)-NIPECOTIC ACID], the IC50 in the experiment listed under Rattus norvegicus [9] turned out to be 5.2 µM; in the experiment filed under Rattus norvegicus [1] (Rattus norvegicus, 3 h) it was 5.2 µM. `COC(=O)C1=CCCN(CCOC(c2ccc(C(F)(F)F)cc2)c2ccc(C(F)(F)F)cc2)C1`: the concentration for half-maximal inhibition (IC50) in the experiment listed under Rattus norvegicus [1] (Rattus norvegicus, 3 h) stood at 40 µM. Still for that read-out and setting: to `CNC(=O)C1CCCN(CCOC(c2ccc(Cl)cc2)c2ccc(Cl)cc2)C1` (stereo not given) belongs 40 µM; to `O=C(O)C1CCCN(CCOC(c2ccc(Cl)cc2)c2ccco2)C1` (stereo not given), 8.7 µM. Still for that read-out and setting: for `O=C1NC(=O)C(c2ccccc2)(c2ccccc2)N1` [PHENYTOIN] the value was more than 50 µM; for `O=C(O)C1CCCN(CCOC(c2ccc(Cl)cc2)c2cccs2)C1` (stereo not given), 3.6 µM; for `O=C(O)[C@H]1CCCNC1` [(S)-NIPECOTIC ACID], 55 µM. `O=C(O)C1CCN(CCOC(c2ccc(Cl)cc2)c2ccc(Cl)cc2)C1` (stereo not given) showed a concentration for half-maximal inhibition (IC50) in the experiment listed under Rattus norvegicus [1] (Rattus norvegicus, 3 h) of more than 50 µM. The compound `O=C(O)[C@H]1CCCN(CCOC(c2ccc(Cl)cc2)c2ccc(Cl)cc2)C1` (stereo in doubt; 36) returned a half-maximal inhibitory concentration (IC50) in the experiment filed under Rattus norvegicus [1] of 14 µM. In the case of `O=C(O)[C@H]1CN(CCOC(c2ccc(Cl)cc2)c2ccc(Cl)cc2)CC[C@@H]1O`, the half-maximal inhibitory concentration (IC50) in the experiment filed under Rattus norvegicus [1] (Rattus norvegicus, 3 h) came to 1.2 µM. With `O=C(O)C1CCN(CCOC(c2ccc(Cl)cc2)c2ccc(Cl)cc2)CC1`, the half-inhibitory concentration (IC50) in the experiment filed under Rattus norvegicus [1] (Rattus norvegicus, 3 h) was more than 50 µM. In turn, `O=C(O)C1CCCN(CCOC(c2ccc(OC(F)(F)F)cc2)c2ccc(OC(F)(F)F)cc2)C1` (stereo not given) gave an IC50 in the experiment filed under Rattus norvegicus [1] (Rattus norvegicus, 3 h) of 0.92 µM. On the same count and under the same terms, for `O=C(O)C1=CCCNC1` [GUVACINE] the value was 7.3 µM. `Cl.O=C(O)C1=CCCN(CCOC(c2ccc(Cl)cc2)c2ccc(Cl)cc2)C1`: the 50% effect level in the experiment on Rattus norvegicus [8] (ED50) was put at a dose of 14 mg/kg. In the experiment filed under Rattus norvegicus [1] (Rattus norvegicus, 3 h), this compound displayed a concentration for half-maximal inhibition (IC50) of 0.41 µM.
